Tests used:
[1] = tested on: Human plasma Cohn fraction 1V-1 protein; test: Turbidimetric test of protein insolubility induced by Fenton-like reaction (ferrous sulfate + H2O2), nephelometer; assay type: biochemical; conditions: amino acid at 400 microMol/L; 100 microMol/L ferrous sulfate + 40 microMol/L H2O2; pH 5.7-5.8; 37° Celsius, 30 minutes
Method: Human plasma Cohn fraction 1V-1 protein solutions (predominately alpha glycoglobulins, rich in lipid—obtained from Sigma Chemical Co.) of 40 mg/dl in saline solutions (140 NaCl mMol/L) were employed at existing pHs of 5.7-5.8 without additional confounding non-protein buffer. A nephelometer measured the intensity of reflected Tydall light. Developed turbidities were measured to quantify the insolubities of the dissolved proteins that were induced by introducing 100 microMol/L of ferrous sulfate and 40 microMol/L of H2O2 with incubations at 37° Celsius for 30 minutes. Insolubilities were standardized as the percent of maximal possible induced turbidities by comparison to similar protein solutions after mixing with the protein-precipitating agent sulfosalicylic acid at 1.5 g/dL.

[2] = Case report: person taking L-citrulline capsules daily for 8 years; conditions: donor one; long-term L-citrulline intake

| SMILES | mean inhibition of the insolubilities induced by the Fenton-like reactions [1] | Fasting blood glucose [2] | Hematocrit [2] | blood hemoglobin [2] | total leucocyte count [2] |
| --- | --- | --- | --- | --- | --- |
| NC(=O)NCCC[C@H](N)C(=O)O [L-citrulline] | did not inhibit | within the normal range | 38.5% | 13.6 g/dL | 6.800 /mcL |
| NC(=O)CC[C@H](N)C(=O)O [L-glutamine] | did not inhibit |  |  |  |  |
| N[C@@H](Cc1c[nH]cn1)C(=O)O [L-histidine free base, L-histidine] | 52.6% |  |  |  |  |

Source: patent US20060046982A1, “Orthomolecular medical use of L-citrulline for capillary endothelial protection and adjacent cell protection in neurodegenerative disease” (priority 2004, published 2006)
